Laboratory results from ChEMBL document CHEMBL1201862, “PubChem BioAssay data set” (2004).
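Step 1: Grow cells in 96-well plates. Step 2: Expose to compound for 48 hours at 5 concentrations. Step 3: Interpolate endpoints linearly; if unreached, use highest concentration. GI50 = concentration required for 50% inhibition of growth.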 The source made the active and inactive calls. Rule as the data show it: active = GI50 up to about 1.1 µM and inactive = higher.

Key:
Assay in all cases: NCI tumour cell line growth inhibition, 48 h
[1] = system: OVCAR-3
[2] = system: OVCAR-8
[3] = system: SK-MEL-2
[4] = system: HCT-116
[5] = system: MDA-MB-435
[6] = system: EKVX
[7] = system: SN12C
[8] = system: SR
[9] = system: SK-MEL-28
[10] = system: K562
[11] = system: SK-OV-3
[12] = system: OVCAR-5
[13] = system: Hs-578T
[14] = system: SF-268
[15] = system: PC-3
[16] = system: NCI-H23
[17] = system: UACC-62
[18] = system: SNB-19
[19] = system: SW-620
[20] = system: HOP-92

| SMILES | GI50 [1] | GI50 [2] | GI50 [3] | GI50 [4] | GI50 [5] | GI50 [6] | GI50 [7] | GI50 [8] | GI50 [9] | GI50 [10] | GI50 [11] | GI50 [12] | GI50 [13] | GI50 [14] | GI50 [15] | GI50 [16] | GI50 [17] | GI50 [18] | GI50 [19] | GI50 [20] |
| --- | --- | --- | --- | --- | --- | --- | --- | --- | --- | --- | --- | --- | --- | --- | --- | --- | --- | --- | --- | --- |
| COC(=O)Cc1c2n(c3ccccc13)C(=O)N1c3ccccc3C(CC(=O)OC)C21 (stereo not given) | 55.7 µM (inactive) | 31.8 µM (inactive) | 38.7 µM (inactive) | 23 µM (inactive) | > 100 µM (inactive) | 45.3 µM (inactive) | > 100 µM (inactive) | > 100 µM (inactive) | > 100 µM (inactive) | > 100 µM (inactive) | 21.8 µM (inactive) | 32.9 µM (inactive) | 21.1 µM (inactive) | 39.5 µM (inactive) | 51.5 µM (inactive) | 15.7 µM (inactive) | 23.5 µM (inactive) | 18.1 µM (inactive) | > 100 µM (inactive) | 9.73 µM (inactive) |
| CC(=O)Nc1ccc(CNc2cc(=O)n(C)c(=O)[nH]2)cc1 | > 100 µM (inactive) | > 100 µM (inactive) | > 100 µM (inactive) | > 100 µM (inactive) | > 100 µM (inactive) | > 100 µM (inactive) | > 100 µM (inactive) | > 100 µM (inactive) | > 100 µM (inactive) | > 100 µM (inactive) | > 100 µM (inactive) | > 100 µM (inactive) | > 100 µM (inactive) | > 100 µM (inactive) | > 100 µM (inactive) | > 100 µM (inactive) | > 100 µM (inactive) | > 100 µM (inactive) | > 100 µM (inactive) | > 100 µM (inactive) |
| O=[N+]([O-])c1c(F)c(F)c2c(c1F)N(CCCCCl)c1ccccc1S2 | 7.01 µM (inactive) | 3.16 µM (inactive) | 3.63 µM (inactive) | 5.05 µM (inactive) | 7.71 µM (inactive) | 21.7 µM (inactive) | 7.5 µM (inactive) | 1.89 µM (inactive) | 5.9 µM (inactive) | 2.05 µM (inactive) | 19.7 µM (inactive) | 18.8 µM (inactive) | 24.8 µM (inactive) | 6.04 µM (inactive) | 6.05 µM (inactive) | 7.91 µM (inactive) | 13.9 µM (inactive) | 7.69 µM (inactive) | 4.05 µM (inactive) | 16.4 µM (inactive) |
| CC(=O)c1cccc(NC(=O)C(=O)c2c(O)oc3ccccc3c2=O)c1 | > 100 µM (inactive) | > 100 µM (inactive) | 10 µM (inactive) | > 100 µM (inactive) | > 100 µM (inactive) | > 100 µM (inactive) | > 100 µM (inactive) | > 100 µM (inactive) | > 100 µM (inactive) | > 100 µM (inactive) | > 100 µM (inactive) | > 100 µM (inactive) | > 100 µM (inactive) | > 100 µM (inactive) | > 100 µM (inactive) | > 100 µM (inactive) | > 100 µM (inactive) | > 100 µM (inactive) | > 100 µM (inactive) | > 100 µM (inactive) |
| CN(C)c1n2c3cc([N+](=O)[O-])ccc3[n+]3c(N(C)C)n4ccccc4c3c2c2cccc[n+]12.[O-][Cl+3]([O-])([O-])[O-].[O-][Cl+3]([O-])([O-])[O-] | > 100 µM (inactive) | > 100 µM (inactive) | > 100 µM (inactive) | > 100 µM (inactive) | > 100 µM (inactive) | > 100 µM (inactive) | 38.9 µM (inactive) | > 100 µM (inactive) | > 100 µM (inactive) | > 100 µM (inactive) | > 100 µM (inactive) | > 100 µM (inactive) | 29.9 µM (inactive) | 29.7 µM (inactive) | > 100 µM (inactive) | > 100 µM (inactive) | > 100 µM (inactive) | 43.1 µM (inactive) | > 100 µM (inactive) | > 100 µM (inactive) |
| Cn1c(=O)cc(/N=N\c2ccc(Cl)c(Cl)c2)[nH]c1=O | 18.7 µM (inactive) | 23.4 µM (inactive) | 14.6 µM (inactive) | 28.4 µM (inactive) | 21.1 µM (inactive) | 24.5 µM (inactive) | 41.1 µM (inactive) | 25.5 µM (inactive) | 23.6 µM (inactive) | 28.1 µM (inactive) | > 100 µM (inactive) | 24.8 µM (inactive) | 33.4 µM (inactive) | 20.1 µM (inactive) | 23.3 µM (inactive) | 37.3 µM (inactive) | 62.2 µM (inactive) | 63.8 µM (inactive) | 24.3 µM (inactive) | 30 µM (inactive) |
| CC12c3c4cccc3Oc3cc(N)cc(c31)Oc1cc(N)cc(c12)O4 | 2.41 µM (inactive) | 0.524 µM (active) | 9.86 µM (inactive) | 3.14 µM (inactive) | 1.24 µM (inactive) | 3.38 µM (inactive) | 8.28 µM (inactive) | 6.22 µM (inactive) | 6.21 µM (inactive) | 4.18 µM (inactive) | 4.11 µM (inactive) | 4.31 µM (inactive) | 6.18 µM (inactive) | 4.31 µM (inactive) | 3.58 µM (inactive) | 8.43 µM (inactive) | 4.59 µM (inactive) | 7.14 µM (inactive) | 3.48 µM (inactive) | 21.4 µM (inactive) |
| CC1=NNC(=S)NCCCN2CCN(CCCNC(=S)NN=C(C)C=NNC(=S)NCCCN3CCN(CCCNC(=S)NN=C1)CC3)CC2 | > 100 µM (inactive) | > 100 µM (inactive) | > 100 µM (inactive) | > 100 µM (inactive) | > 100 µM (inactive) | > 100 µM (inactive) | > 100 µM (inactive) | > 100 µM (inactive) | > 100 µM (inactive) | > 100 µM (inactive) | > 100 µM (inactive) | > 100 µM (inactive) | > 100 µM (inactive) | > 100 µM (inactive) | > 100 µM (inactive) | > 100 µM (inactive) | > 100 µM (inactive) | > 100 µM (inactive) | > 100 µM (inactive) | > 100 µM (inactive) |
| N=C(N)NS(=O)(=O)c1ccc(NCc2cccc3c(=O)c4ccc(Cl)cc4oc23)cc1 | > 8.47 µM (inactive) | 7.52 µM (inactive) | > 10.4 µM (inactive) | 2.99 µM (inactive) | 5.04 µM (inactive) | > 9.53 µM (inactive) | > 9.27 µM (inactive) | 2.08 µM (inactive) | > 12.2 µM (inactive) | 2.84 µM (inactive) | > 10.3 µM (inactive) | > 10.1 µM (inactive) | 4.37 µM (inactive) | 4.33 µM (inactive) | 1.4 µM (inactive) | 8.55 µM (inactive) | 6.19 µM (inactive) | 5.97 µM (inactive) | 5.41 µM (inactive) | 3.86 µM (inactive) |
| CC(=O)[C@@]1(O)CC[C@H]2[C@@H]3C[C@H](C)C4=CC(=O)CC[C@]4(C)[C@H]3[C@@H](O)C[C@@]21C | > 100 µM (inactive) | > 100 µM (inactive) | > 100 µM (inactive) | > 100 µM (inactive) | > 100 µM (inactive) | 68.7 µM (inactive) | > 100 µM (inactive) | > 100 µM (inactive) | > 100 µM (inactive) | > 100 µM (inactive) | > 100 µM (inactive) | > 100 µM (inactive) | 68.1 µM (inactive) | > 100 µM (inactive) | > 100 µM (inactive) | > 100 µM (inactive) | > 100 µM (inactive) | > 100 µM (inactive) | > 100 µM (inactive) | > 100 µM (inactive) |
| c1cc(-c2ccsc2-c2ccsc2)cs1 | 23.8 µM (inactive) | > 100 µM (inactive) | 28.5 µM (inactive) | 52.1 µM (inactive) | 36.6 µM (inactive) | > 100 µM (inactive) | > 86.9 µM (inactive) | 16.3 µM (inactive) | > 100 µM (inactive) | > 27.2 µM (inactive) | > 100 µM (inactive) | > 100 µM (inactive) | 59.3 µM (inactive) | > 86.1 µM (inactive) | > 100 µM (inactive) | 46.3 µM (inactive) | > 88.9 µM (inactive) | > 100 µM (inactive) | > 91.8 µM (inactive) | > 92.3 µM (inactive) |
| COC(=O)CCc1cc(OC)c2c(c1)[C@H](C(=O)OC)[C@@H](c1ccc(O)c(OC)c1)O2 | 47.2 µM (inactive) | 78.2 µM (inactive) | 33.1 µM (inactive) | 35.5 µM (inactive) | 15.1 µM (inactive) | 58.2 µM (inactive) | 56.9 µM (inactive) | 1.43 µM (inactive) | 41.9 µM (inactive) | 13.4 µM (inactive) | 42.8 µM (inactive) | > 100 µM (inactive) | 38.4 µM (inactive) | 52.6 µM (inactive) | 91.8 µM (inactive) | 38.5 µM (inactive) | 39.8 µM (inactive) | 51.9 µM (inactive) | 47.4 µM (inactive) | > 100 µM (inactive) |
| O=C(Nc1nc2ccccc2s1)c1cc([N+](=O)[O-])ccc1Cl | 16.7 µM (inactive) | 5 µM (inactive) | 13.2 µM (inactive) | 3.87 µM (inactive) | 3.13 µM (inactive) | 10.1 µM (inactive) | 9.59 µM (inactive) | 1.54 µM (inactive) | > 32.1 µM (inactive) | 3.86 µM (inactive) | 16 µM (inactive) | 23 µM (inactive) | 2.88 µM (inactive) | 4.45 µM (inactive) | 7.24 µM (inactive) | 4.91 µM (inactive) | 7.5 µM (inactive) | 28.4 µM (inactive) | 6.14 µM (inactive) | 5.89 µM (inactive) |
